From US12653787B2, “Pharmaceutical oral dosage form of Q203” (QURIENT CO., LTD., priority 2019, dated 2026)

How the values were obtained:
[1] = Solubility of Q203 in aqueous solutions (background statement); format: physicochemical
cytochrome bc1 = cytochrome bc1 (Mycobacterium tuberculosis, UniProt P9WP37); conditions: by inhibiting cytochrome bc1 activity; Pethe et al., Nature Medicine 2013; cited from earlier work
Chain of cytochrome bc1 (P9WP37 whole entry, looked up): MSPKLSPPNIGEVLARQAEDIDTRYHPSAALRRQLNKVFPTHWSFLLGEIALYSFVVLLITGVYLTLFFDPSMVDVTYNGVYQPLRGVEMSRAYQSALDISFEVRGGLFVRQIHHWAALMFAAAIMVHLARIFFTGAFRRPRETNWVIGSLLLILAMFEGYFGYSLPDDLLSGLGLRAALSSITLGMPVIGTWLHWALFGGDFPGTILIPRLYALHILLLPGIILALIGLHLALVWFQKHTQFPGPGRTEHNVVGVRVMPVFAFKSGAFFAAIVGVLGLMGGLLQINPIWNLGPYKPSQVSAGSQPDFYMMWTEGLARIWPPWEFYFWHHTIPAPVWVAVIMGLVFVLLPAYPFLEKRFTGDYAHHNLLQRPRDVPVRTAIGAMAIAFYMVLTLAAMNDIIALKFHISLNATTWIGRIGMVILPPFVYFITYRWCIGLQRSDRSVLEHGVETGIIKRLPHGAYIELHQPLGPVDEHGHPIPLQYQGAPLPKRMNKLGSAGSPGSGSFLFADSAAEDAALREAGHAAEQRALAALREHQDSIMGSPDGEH

CCc1nc2ccc(Cl)cn2c1C(=O)NCc1ccc(N2CCC(c3ccc(OC(F)(F)F)cc3)CC2)cc1 [Example Q203, 6-chloro-2-ethyl-N-(4-(4-(4-(trifluoromethoxy)phenyl)piperidine-1-yl)benzyl)imidazo[1,2-a]pyridine-3-carboxamide]
solubility in aqueous solutions [1]: rather low solubility
activity against tuberculosis (cytochrome bc1): active against tuberculosis
